These results are taken from US9133206B2, “Benzodiazepine and pyridodiazepine derivatives” (AbbVie Inc., priority 2010, dated 2015).

The test deals with SK-N-SH human neuroblastoma cells. Put plainly: Serum Deprivation/JC-1 Mitochondrial Membrane Potential (MMP) Assay. The class given is cell-based. The following applies: Homo sapiens; for EC50 / Emax: SK-N-SH; for EC50: 18 h, serum deprivation ~18 hours, JC-1 ratio normalized to peak value for 10 μM dimebolin, single curve fit to mean data of n=2-3; for Emax: percent maximal intensity in JC-1 ratio normalized to peak value for 10 μM dimebolin, read-out: JC-1 max %; for Emax / activation at 3 µM: serum deprivation; for activation at 3 µM: single dose 3 μM, JC-1 ratio normalized to peak value for 10 μM dimebolin (n=2-4), read-out: JC-1 max % (@ 3 μM). The text has this:
The method also involves a high-throughput assay using serum-deprivation conditions involving neuronal cells to screen for compounds that increase or preserve mitochondrial membrane potential. Such compounds can be found to aid in rescuing cells from energy-depletion that occurs in several neurodegenerative states. Mitochondrial-mediated apoptosis occurs in response to a wide range of apoptotic stimuli including p^53, c-myc, DNA damage, prooxidants, chemotherapeutic agents, serum starvation and death receptor activation (Lin C—H., Lu Y-Z., Cheng, F-C., Chu L-F. and Hsuch C-M. Bax-regulated mitochondrial-mediated apoptosis is responsible for the in vitro ischemia induced neuronal cell death of Sprague Dawley rat. Neuroscience Lett. 2005, 387, 22-27).
Thus, this stress inducer, serum deprivation, combined with monitoring changes in the mitochondrial membrane potential in a 96-well format allows for the establishment of an efficient high-throughput screen (HTS) in order to evaluate the ability of compounds to increase mitochondrial membrane potential in the presence of stress and preserve health of the cell. Exemplary procedures for conducting such high-throughput assay are provided below.
SK-N-SH human neuroblastoma cells obtained from American Type Culture Collection (Rockville, Md.) were maintained in the log phase of growth in Minimal Essential Media (MEM), 10% heat inactivated fetal calf serum and 100 units/mL antibiotic-antimycotic (AA). Cells were cultured and maintained in a humidified incubator at 37° C. under 5% CO2 and 95% air. Cells were trypsinized (0.25%) and subcultured every 3 days and used from 15-18 passages. All cell culture supplies were obtained from Invitrogen (Carlsbad, Calif.).
SK-N-SH cells were plated 2-3 days in advance at a concentration of 50,000 cells/well onto collagen coated black-walled 96 well plates (Becton-Dickinson, Bedford, Mass.) in a total volume of […]. On day of experimental treatment, the media containing serum was aspirated from each well and rinsed once with MEM/1% AA without serum. The cells then were incubated overnight in 100 μL of MEM/1% AA (no serum) with and without dimebolin or novel chemical entities overnight for ˜18 hours. The following day, JC-1 dye (5,5′,6,6′-tetrachloro-1,1′,3,3′-tetraethylbenzimidazolcarbocyanide) was diluted 1:10 into MEM media according to the JC-1 Mitochondrial Membrane Potential Assay Kit: (Cayman Chemical Company, Ann Arbor, Mich.) and then 10 μL of the JC-1 dye solution was added to each well. The plates were centrifuged for 5 minutes at 400×g at room temperature followed by 40 minute incubation at 37° C. The plates were washed twice with 200 μL of provided Assay Buffer followed an addition of 100 μL of Assay Buffer to each well. The plates were read with an excitation and emission of 560 nm and 595 nM for red fluorescence and with an excitation and emission of 485 nm and 535 nM for green fluorescence to determine the final JC-1 value taking the red to green fluorescence ratio. This assay is based on change in mitochondrial membrane potential (MMP) using this lipophilic cationic dye, JC-1, by monitoring the changes in the ratio of red to green fluorescence as the MMP depolarizes. This change in MMP reflects the health of the cell with healthy, viable cells have a high JC-1 ratio and high MMP whereas apoptotic, unhealthy cells have a low JC-1 ratio or low MMP.
For the ability of compounds to reverse the stress due to serum deprivation and increase the JC-1 ratio, the percent maximal intensity in JC-1 ratio was normalized to that induced by the peak value for 10 μM dimebolin and plotted against the compound concentration to calculate EC50 values and to control for plate-to-plate variability. Concentration-response data were analyzed using GraphPad Prism (San Diego, Calif.); the EC50 values were derived from a single curve fit to the mean data of n=2-3, in duplicates. […]

A word on the EC50: it is the concentration giving half of the maximal effect.

With `O=C1C2CN(Cc3ccc(F)cc3)CCN2c2ccccc2CN1Cc1ccc(Br)cc1` (centres unmarked) [Example 73, 6-(4-bromobenzyl)-3-(4-fluorobenzyl)-2,3,4,4a,6,7-hexahydropyrazino[1,2-a][1,4]benzodiazepin-5(1H)-one], the EC50 came to 4.27 µM and the Emax turned out to be 229%.

As to `Cc1cnc(C(=O)N2Cc3ccccc3N3CCN(Cc4ccccc4)CC3C2)cn1` (centres unmarked) [Example 102, (3-benzyl-1,2,3,4,4a,5-hexahydropyrazino[1,2-a][1,4]benzodiazepin-6(7H)-yl)(5-methylpyrazin-2-yl)methanone], the activation at 3 µM came to 110%.

For `O=C(N1CCCCC1)N1Cc2ccccc2N2CCN(Cc3ccccc3)CC2C1` (centres unmarked) [Example 171, (3-benzyl-1,2,3,4,4a,5-hexahydropyrazino[1,2-a][1,4]benzodiazepin-6(7H)-yl)(piperidin-1-yl)methanone], the 50% effective concentration (EC50) came to 2.45 µM and the Emax amounted to 251%.

As to `O=C(CN1CCOCC1)N1Cc2ccccc2N2CCN(Cc3ccccc3)CC2C1` (centres unmarked) [Example 87, 1-(3-benzyl-1,2,3,4,4a,5-hexahydropyrazino[1,2-a][1,4]benzodiazepin-6(7H)-yl)-2-(morpholin-4-yl)ethanone], the activation at 3 µM was 83%.

Regarding `CCOCC(=O)N1Cc2ccccc2N2CCN(Cc3ccccc3)CC2C1` (centres unmarked) [Example 113, 1-(3-benzyl-1,2,3,4,4a,5-hexahydropyrazino[1,2-a][1,4]benzodiazepin-6(7H)-yl)-2-ethoxyethanone], the activation at 3 µM came out at 51%.

With `CC1(C(=O)N2Cc3ccccc3N3CCN(Cc4ccccc4)CC3C2)CC1` (centres unmarked) [Example 114, (3-benzyl-1,2,3,4,4a,5-hexahydropyrazino[1,2-a][1,4]benzodiazepin-6(7H)-yl)(1-methylcyclopropyl)methanone], the concentration for a half-maximal effect (EC50) came out at 4.36 µM and the Emax turned out to be 201%.

On to `CN1CCC2CN(Cc3ccccc3)CCN2c2ncccc21` (centres unmarked) [Example 55, 9-benzyl-5-methyl-5,6,7,7a,8,9,10,11-octahydropyrazino[1,2-d]pyrido[3,2-b][1,4]diazepine], for which the concentration giving a half-maximal response (EC50) was 9.95 µM and the Emax was found to be 99%.

With `CN1CCN2c3ccccc3CN(Cc3ccc(Br)cc3)CC2C1` (centres unmarked) [Example 57, 6-(4-bromobenzyl)-3-methyl-1,2,3,4,4a,5,6,7-octahydropyrazino[1,2-a][1,4]benzodiazepine], the EC50 stood at 10.2 µM and the Emax was 167%.

On to `CC(C)CCN1Cc2ccccc2N2CCN(Cc3ccccc3)CC2C1` (centres unmarked) [Example 143, 3-benzyl-6-(3-methylbutyl)-1,2,3,4,4a,5,6,7-octahydropyrazino[1,2-a][1,4]benzodiazepine], for which the activation at 3 µM came out at 30%.

Turning to `c1ccc(CN2CCN3c4ccccc4CN(Cc4ccccc4)CC3C2)cc1` (centres unmarked) [Example 7, 3,6-dibenzyl-1,2,3,4,4a,5,6,7-octahydropyrazino[1,2-a][1,4]benzodiazepine], the EC50 is over 30 µM and the Emax is 24%.

As to `Clc1ccc(CCN2CCC3CN(Cc4ccccc4)CCN3c3ncccc32)cc1` (centres unmarked) [Example 54, 9-benzyl-5-[2-(4-chlorophenyl)ethyl]-5,6,7,7a,8,9,10,11-octahydropyrazino[1,2-d]pyrido[3,2-b][1,4]diazepine], the EC50 worked out at 3.59 µM and the Emax amounted to 177%.

For the molecule `CN1Cc2ccccc2N2CCN(Cc3ccccc3)CC2C1` (centres unmarked) [Example 8, 3-benzyl-6-methyl-1,2,3,4,4a,5,6,7-octahydropyrazino[1,2-a][1,4]benzodiazepine], the concentration giving a half-maximal response (EC50) is 3.03 µM and the Emax came out at 204%.

Turning to `CN1CCN2c3ccccc3N(Cc3ccc(Br)cc3)CCC2C1` (centres unmarked) [Example 22, 7-(4-bromobenzyl)-3-methyl-1,2,3,4,4a,5,6,7-octahydropyrazino[1,2-a][1,5]benzodiazepine], the 50% effective concentration (EC50) was 2.95 µM and the Emax came to 173%.

Turning to `CC(=O)N1CCC(C(=O)N2Cc3ccccc3N3CCN(Cc4ccccc4)CC3C2)CC1` (centres unmarked) [Example 84, 1-{4-[(3-benzyl-1,2,3,4,4a,5-hexahydropyrazino[1,2-a][1,4]benzodiazepin-6(7H)-yl)carbonyl]piperidin-1-yl}ethanone], the activation at 3 µM stood at 183%.

Turning to `O=C(c1ccc[nH]1)N1Cc2ccccc2N2CCN(Cc3ccccc3)CC2C1` (centres unmarked) [Example 93, (3-benzyl-1,2,3,4,4a,5-hexahydropyrazino[1,2-a][1,4]benzodiazepin-6(7H)-yl)(1H-pyrrol-2-yl)methanone], the EC50 was 1.56 µM and the Emax stood at 185%.

`CCCC(=O)N1Cc2ccccc2N2CCN(Cc3ccccc3)CC2C1` (centres unmarked) [Example 108, 1-(3-benzyl-1,2,3,4,4a,5-hexahydropyrazino[1,2-a][1,4]benzodiazepin-6(7H)-yl)butan-1-one]: the EC50 is 3.12 µM and the Emax amounted to 162%.

As for `Cc1cc(C(=O)N2Cc3ccccc3N3CCN(Cc4ccccc4)CC3C2)c(C)n1C` (centres unmarked) [Example 95, (3-benzyl-1,2,3,4,4a,5-hexahydropyrazino[1,2-a][1,4]benzodiazepin-6(7H)-yl)(1,2,5-trimethyl-1H-pyrrol-3-yl)methanone], the EC50 turned out to be 0.282 µM and the Emax was 189%.

Turning to `c1ccc(CN2CCN3c4ccccc4CN(c4ncccn4)CC3C2)cc1` (centres unmarked) [Example 9, 3-benzyl-6-(pyrimidin-2-yl)-1,2,3,4,4a,5,6,7-octahydropyrazino[1,2-a][1,4]benzodiazepine], the EC50 is 2.59 µM and the Emax came to 158%.

As to `O=C(Cc1ccc(Cl)cc1)N1CCC2CN(Cc3ccccc3)CCN2c2ncccc21` (centres unmarked) [Example 53, 1-(9-benzyl-7,7a,8,9,10,11-hexahydropyrazino[1,2-d]pyrido[3,2-b][1,4]diazepin-5(6H)-yl)-2-(4-chlorophenyl)ethanone], the 50% effective concentration (EC50) is 9.88 µM and the Emax was determined as 210%.

With `CCN(CC)C(=O)N1Cc2ccccc2N2CCN(Cc3ccccc3)CC2C1` (centres unmarked) [Example 158, 3-benzyl-N,N-diethyl-1,2,3,4,4a,5-hexahydropyrazino[1,2-a][1,4]benzodiazepine-6(7H)-carboxamide], the EC50 was 1.02 µM and the Emax worked out at 181%.

`CC(C)CNC(=O)N1Cc2ccccc2N2CCN(Cc3ccccc3)CC2C1` (centres unmarked) [Example 162, 3-benzyl-N-isobutyl-1,2,3,4,4a,5-hexahydropyrazino[1,2-a][1,4]benzodiazepine-6(7H)-carboxamide]: the activation at 3 µM came to 194%.

Take `CN1CCN(CC(=O)N2Cc3ccccc3N3CCN(Cc4ccccc4)CC3C2)CC1` (centres unmarked) [Example 103, 1-(3-benzyl-1,2,3,4,4a,5-hexahydropyrazino[1,2-a][1,4]benzodiazepin-6(7H)-yl)-2-(4-methylpiperazin-1-yl)ethanone]: the activation at 3 µM worked out at 42%.

As for `NCCc1cn(C(=O)N2Cc3ccccc3N3CCN(Cc4ccccc4)CC3C2)cn1` (centres unmarked) [Example 154, [4-(2-aminoethyl)-1H-imidazol-1-yl](3-benzyl-1,2,3,4,4a,5-hexahydropyrazino[1,2-a][1,4]benzodiazepin-6(7H)-yl)methanone], the activation at 3 µM amounted to 49%.

For the molecule `Cc1ccsc1CN1Cc2ccccc2N2CCN(Cc3ccccc3)CC2C1` (centres unmarked) [Example 142, 3-benzyl-6-[(3-methyl-2-thienyl)methyl]-1,2,3,4,4a,5,6,7-octahydropyrazino[1,2-a][1,4]benzodiazepine], the activation at 3 µM is 13%.

For `Cc1ccc(CN2Cc3ccccc3N3CCN(Cc4ccccc4)CC3C2)cc1` (centres unmarked) [Example 137, 3-benzyl-6-(4-methylbenzyl)-1,2,3,4,4a,5,6,7-octahydropyrazino[1,2-a][1,4]benzodiazepine], the concentration giving a half-maximal response (EC50) worked out at 3.3 µM and the Emax is 143%.
